Laboratory results reported in patent US11229599B2, “Implant compositions for the unidirectional delivery of therapeutic compounds to the brain” (Board of Regents, the University of Texas System, priority 2015, dated 2022).

Test: Differential scanning calorimetry, physical state of APAP in glycerol behenate
Assay type: physicochemical
Conditions: FIG. 6; 5% APAP+95% glycerol behenate, physical blend and melt mix
Procedure: Differential scanning calorimetry testing was performed using a TA Thermal Analyzer (Model DSC Q20, TA Instruments, New Castle, Del., US). The temperature was calibrated with an indium standard. Sample size was about 5 mg and a temperature ramp of 10° C. per minute was used. Universal Analysis 2000 data analysis software was used for data analysis. Inflection point method was used for the analysis of the glass transition temperature. The melting temperature is defined as the intersection of the extension of the baseline with the tangent at the inflection point of the curve.

SMILES: CC(=O)Nc1ccc(O)cc1 [APAP, acetaminophen]
- physical state of APAP in glycerol behenate: dispersed as crystalline particles
